This is an account of results in patent publication US9822126B1, “Substituted 1,2,3-triazol-1-yl-methyl-2,3-dihydro-2-methyl-6-nitroimidazo[2,1-b]oxazoles as anti-mycobacterial agents and a process for the preparation thereof” (priority 2014, dated 2017).

Assay in all cases: microbe, parasite or virus in culture
What all share (format): cell-based

Assay [1] relates to Rif^R: rifampicin resistant tuberculosis. Conditions: Mycobacterium tuberculosis, read-out: MIC (Rif^R).
Assay [2] deals with M. tuberculosis MDR (resistant to isoniazid and rifampicin). The settings on record: Mycobacterium tuberculosis.
Assay [3] has as its system M. tuberculosis XDR (resistant to isoniazid, rifampicin, amikacin and moxifloxacin). Conditions: Mycobacterium tuberculosis, 504 h, read-out: MIC XDR.
[4] abbreviates: read-out: MIC against multi and extensive-drug resistant strains.

Values after ≈ are worked out from the molar mass of the structure shown. Read-outs that look alike come from different tables or passages of the source. Bounds are passed on as bounds.

For the compound `C[C@]1(Cn2cc(COc3ccc(OC(F)(F)F)cc3)nn2)Cn2cc([N+](=O)[O-])nc2O1` [I8, (R)-2-Methyl-6-nitro-2-((4-((4-(trifluoromethoxy)phenoxy)methyl)-1H-1,2,3-triazol-1-yl)methyl)-2,3-dihydroimidazo[2,1-b]oxazole], the MIC in assay [1] turned out to be 2 mg/L (≈ 4.54 µM); in assay [2] (504 h, read-out: MIC MDR), 2 mg/L (≈ 4.54 µM); in assay [3], 2 mg/L (≈ 4.54 µM).
Turning to `C[C@]1(Cn2cc(-c3ccc(F)cc3F)nn2)Cn2cc([N+](=O)[O-])nc2O1` [I5, (R)-2-((4-(2,4-Difluorophenyl)-1H-1,2,3-triazol-1-yl)methyl)-2-methyl-6-nitro-2,3-dihydroimidazo[2,1-b]oxazole], the MIC in assay [1] turned out to be 4 mg/L (≈ 11 µM); in assay [2] (504 h, read-out: MIC MDR), 1 mg/L (≈ 2.76 µM); in assay [3], 4 mg/L (≈ 11 µM).
As to `Cc1ccc(OCc2cn(C[C@@]3(C)Cn4cc([N+](=O)[O-])nc4O3)nn2)cc1` [I12, (R)-2-Methyl-6-nitro-2-((4-((p-tolyloxy)methyl)-1H-1,2,3-triazol-1-yl)methyl)-2,3-dihydroimidazo[2,1-b]oxazole], the MIC in assay [1] worked out at 8 mg/L (≈ 21.6 µM); in assay [2] (504 h, read-out: MIC MDR) it was 2 mg/L (≈ 5.4 µM); in assay [3], 8 mg/L (≈ 21.6 µM).
Consider `Cc1ccc(SCc2cn(C[C@@]3(C)Cn4cc([N+](=O)[O-])nc4O3)nn2)cc1` [I20, (R)-2-Methyl-6-nitro-2-((4-((p-tolylthio)methyl)-1H-1,2,3-triazol-1-yl)methyl)-2,3-dihydroimidazo[2,1-b]oxazole], for which the MIC in assay [1] is 0.25 mg/L (≈ 0.647 µM); in assay [2] (504 h, read-out: MIC MDR) it was 0.5 mg/L (≈ 1.29 µM); in assay [2] (read-out: MIC value), below 1 mg/L; in assay [3], 2 mg/L (≈ 5.18 µM).
With `C[C@]1(Cn2cc(COc3cccc(F)c3)nn2)Cn2cc([N+](=O)[O-])nc2O1` [I16, (R)-2-((4-((3-Fluorophenoxy)methyl)-1H-1,2,3-triazol-1-yl)methyl)-2-methyl-6-nitro-2,3-dihydroimidazo[2,1-b]oxazole], the MIC in assay [1] was 2 mg/L (≈ 5.34 µM); in assay [2] (504 h, read-out: MIC MDR) it was 2 mg/L (≈ 5.34 µM); in assay [3] it was 2 mg/L (≈ 5.34 µM).
Turning to `CCc1ccc(OCc2cn(C[C@@]3(C)Cn4cc([N+](=O)[O-])nc4O3)nn2)cc1` [I15, (R)-2-((4-((4-Ethylphenoxy)methyl)-1H-1,2,3-triazol-1-yl)methyl)-2-methyl-6-nitro-2,3-dihydroimidazo[2,1-b]oxazole], the MIC in assay [1] worked out at 4 mg/L (≈ 10.4 µM); in assay [2] (504 h, read-out: MIC MDR), 2 mg/L (≈ 5.2 µM); in assay [3], 4 mg/L (≈ 10.4 µM).
For `Cc1cc(-c2cn(C[C@@]3(C)Cn4cc([N+](=O)[O-])nc4O3)nn2)ccc1F` [I4, (R)-2-((4-(4-Fluoro-3-methylphenyl)-1H-1,2,3-triazol-1-yl)methyl)-2-methyl-6-nitro-2,3-dihydroimidazo[2,1-b]oxazole], the MIC was found to be 1 mg/L (≈ 2.79 µM) in assay [1]; 4 mg/L (≈ 11.2 µM) in assay [2] (504 h, read-out: MIC MDR); 2 mg/L (≈ 5.58 µM) in assay [3].
Regarding `Cc1cccc(OCc2cn(C[C@@]3(C)Cn4cc([N+](=O)[O-])nc4O3)nn2)c1` [I13, (R)-2-Methyl-6-nitro-2-((4-((m-tolyloxy)methyl)-1H-1,2,3-triazol-1-yl)methyl)-2,3-dihydroimidazo[2,1-b]oxazole], the MIC in assay [1] stood at 1 mg/L (≈ 2.7 µM); in assay [2] (504 h, read-out: MIC MDR), 1 mg/L (≈ 2.7 µM); in assay [3] it was 2 mg/L (≈ 5.4 µM).
For `Cc1ccc(OCCc2cn(C[C@@]3(C)Cn4cc([N+](=O)[O-])nc4O3)nn2)cc1` [I21, (R)-2-Methyl-6-nitro-2-((4-(2-(p-tolyloxy)ethyl)-1H-1,2,3-triazol-1-yl)methyl)-2,3-dihydroimidazo[2,1-b]oxazole], the MIC in assay [1] is 1 mg/L (≈ 2.6 µM); in assay [2] (504 h, read-out: MIC MDR), 0.25 mg/L (≈ 0.65 µM); in assay [2] (setting [4]), 0.25 mg/L (≈ 0.65 µM); in assay [2] (read-out: MIC value), below 1 mg/L; in assay [3] it was 0.25 mg/L (≈ 0.65 µM).
As for `Cc1ccccc1OCc1cn(C[C@@]2(C)Cn3cc([N+](=O)[O-])nc3O2)nn1` [I14, (R)-2-Methyl-6-nitro-2-((4-((o-tolyloxy)methyl)-1H-1,2,3-triazol-1-yl)methyl)-2,3-dihydroimidazo[2,1-b]oxazole], the MIC turned out to be 1 mg/L (≈ 2.7 µM) in assay [1]; 1 mg/L (≈ 2.7 µM) in assay [2] (504 h, read-out: MIC MDR); 1 mg/L (≈ 2.7 µM) in assay [3].
With `CC(C)c1ccc(OCc2cn(C[C@@]3(C)Cn4cc([N+](=O)[O-])nc4O3)nn2)cc1` [I18, (R)-2-((4-((4-Isopropylphenoxy)methyl)-1H-1,2,3-triazol-1-yl)methyl)-2-methyl-6-nitro-2,3-dihydroimidazo[2,1-b]oxazole], the MIC was 2 mg/L (≈ 5.02 µM) in assay [1]; 1 mg/L (≈ 2.51 µM) in assay [2] (504 h, read-out: MIC MDR); 4 mg/L (≈ 10 µM) in assay [3].
Taken in the same sequence, the figures for `C[C@]1(Cn2cc(-c3ccc(OC(F)(F)F)cc3)nn2)Cn2cc([N+](=O)[O-])nc2O1` [I1, (R)-2-Methyl-6-nitro-2-((4-(4-(trifluoromethoxy)phenyl)-1H-1,2,3-triazol-1-yl)methyl)-2,3-dihydroimidazo[2,1-b]oxazole] were 2 mg/L (≈ 4.87 µM), 2 mg/L (≈ 4.87 µM) and 1 mg/L (≈ 2.44 µM).
For `C[C@]1(Cn2cc(-c3ccc(C(F)(F)F)cc3)nn2)Cn2cc([N+](=O)[O-])nc2O1` [I2, (R)-2-Methyl-6-nitro-2-((4-(4-(trifluoromethyl)phenyl)-1H-1,2,3-triazol-1-yl)methyl)-2,3-dihydroimidazo[2,1-b]oxazole], in that order: 4 mg/L (≈ 10.1 µM), 2 mg/L (≈ 5.07 µM) and 2 mg/L (≈ 5.07 µM).
`C[C@]1(Cn2cc(-c3ccc(F)cc3)nn2)Cn2cc([N+](=O)[O-])nc2O1` [I3, (R)-2-((4-(4-Fluorophenyl)-1H-1,2,3-triazol-1-yl)methyl)-2-methyl-6nitro-2,3-dihydro imidazo[2,1-b]oxazole]: the MIC worked out at 2 mg/L (≈ 5.81 µM) in assay [1]; 2 mg/L (≈ 5.81 µM) in assay [2] (504 h, read-out: MIC MDR); 2 mg/L (≈ 5.81 µM) in assay [3].
For `C[C@]1(Cn2cc(COc3ccc(Br)cc3)nn2)Cn2cc([N+](=O)[O-])nc2O1` [I11, (R)-2-((4-((4-Bromophenoxy)methyl)-1H-1,2,3-triazol-1-yl)methyl)-2-methyl-6-nitro-2,3-dihydroimidazo[2,1-b]oxazole], the MIC in assay [1] was 0.12 mg/L (≈ 0.276 µM); in assay [2] (504 h, read-out: MIC MDR), 0.12 mg/L (≈ 0.276 µM); in assay [2] (setting [4]) it was 0.12 mg/L (≈ 0.276 µM); in assay [2] (read-out: MIC value), below 1 mg/L; in assay [3], 0.25 mg/L (≈ 0.574 µM).
For the compound `C[C@]1(Cn2cc(CN3CCOCC3)nn2)Cn2cc([N+](=O)[O-])nc2O1` [I22, (R)-2-Methyl-2-((4-(morpholinomethyl)-1H-1,2,3-triazol-1-yl)methyl)-6-nitro-2,3-dihydroimidazo[2,1-b]oxazole], the MIC in assay [1] stood at 2 mg/L (≈ 5.72 µM); in assay [2] (504 h, read-out: MIC MDR), 2 mg/L (≈ 5.72 µM); in assay [3], 2 mg/L (≈ 5.72 µM).
On to `C[C@]1(Cn2cc(COc3ccccn3)nn2)Cn2cc([N+](=O)[O-])nc2O1` [I19, (R)-2-Methyl-6-nitro-2-((4-((pyridin-2-yloxy)methyl)-1H-1,2,3-triazol-1-yl)methyl)-2,3-dihydroimidazo[2,1-b]oxazole], for which the MIC was 0.5 mg/L (≈ 1.4 µM) in assay [1]; 0.25 mg/L (≈ 0.7 µM) in assay [2] (504 h, read-out: MIC MDR); below 1 mg/L in assay [2] (read-out: MIC value); 0.5 mg/L (≈ 1.4 µM) in assay [3].
On to `C[C@]1(Cn2cc(COc3ccc(C(F)(F)F)cc3)nn2)Cn2cc([N+](=O)[O-])nc2O1` [I9, (R)-2-Methyl-6-nitro-2-((4-((4-(trifluoromethyl)phenoxy)methyl)-1H-1,2,3-triazol-1-yl)methyl)-2,3-dihydroimidazo[2,1-b]oxazole], for which the MIC was found to be 4 mg/L (≈ 9.43 µM) in assay [1]; 4 mg/L (≈ 9.43 µM) in assay [2] (504 h, read-out: MIC MDR); 4 mg/L (≈ 9.43 µM) in assay [3].
As to `C[C@]1(Cn2cc(COc3ccccc3F)nn2)Cn2cc([N+](=O)[O-])nc2O1` [I17, (R)-2-((4-((2-Fluorophenoxy)methyl)-1H-1,2,3-triazol-1-yl)methyl)-2-methyl-6-nitro-2,3-dihydroimidazo[2,1-b]oxazole], the MIC is 1 mg/L (≈ 2.67 µM) in assay [1]; 0.5 mg/L (≈ 1.34 µM) in assay [2] (504 h, read-out: MIC MDR); 0.5 mg/L (≈ 1.34 µM) in assay [2] (setting [4]); below 1 mg/L in assay [2] (read-out: MIC value); 1 mg/L (≈ 2.67 µM) in assay [3].
For the compound `C[C@]1(Cn2cc(-c3ccc(Oc4ccccc4)cc3)nn2)Cn2cc([N+](=O)[O-])nc2O1` [I6, (R)-2-Methyl-6-nitro-2-((4-(4-phenoxyphenyl)-1H-1,2,3-triazol-1-yl)methyl)-2,3-dihydroimidazo[2,1-b]oxazole], the MIC came out at 1 mg/L (≈ 2.39 µM) in assay [1]; 1 mg/L (≈ 2.39 µM) in assay [2] (504 h, read-out: MIC MDR); 1 mg/L (≈ 2.39 µM) in assay [3].
As to `C[C@]1(Cn2cc(COc3cccc(Cl)c3)nn2)Cn2cc([N+](=O)[O-])nc2O1` [I10, (R)-2-((4-((3-Chlorophenoxy)methyl)-1H-1,2,3-triazol-1-yl)methyl)-2-methyl-6-nitro-2,3-dihydroimidazo[2,1-b]oxazole], the MIC in assay [1] turned out to be 2 mg/L (≈ 5.12 µM); in assay [2] (504 h, read-out: MIC MDR), 2 mg/L (≈ 5.12 µM); in assay [3], 4 mg/L (≈ 10.2 µM).
Regarding `CCCCCc1cn(C[C@@]2(C)Cn3cc([N+](=O)[O-])nc3O2)nn1` [I7, (R)-2-[(4-Pentyl-1H-1,2,3-triazol-1-yl)methyl]-2,3-dihydro-2-methyl-6-nitroimidazo[2,1-b]oxazole], the MIC in assay [1] is 8 mg/L (≈ 25 µM); in assay [2] (504 h, read-out: MIC MDR), 2 mg/L (≈ 6.24 µM); in assay [3] it was 8 mg/L (≈ 25 µM).
